Results on three compounds are retold here after patent US11254671B2, “Chemical compounds” (GLAXOSMITHKLINE INTELLECTUAL PROPERTY DEVELOPMENT LIMITED, priority 2017, dated 2022).

This test relates to phosphorylated Akt at serine 473 (pAKTs473) in primary human lung fibroblasts. The experiment in a line: Highthroughput phosphorylated Akt (Ser473) in vitro immunoassay (MSD). Type of test: cell-based. The settings on record: Fibroblast, 1 h compound, PDGF-BB 10 ng/ml for 10 min, mean of multiple experiments, read-out: mean pIC50, inhibition of pAkt (Ser473) (converted). A digest of the protocol:
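Primary human lung fibroblasts in 0.4% FBS were preincubated with compound for 1 h at 37 °C (11-point curve, 0.1% DMSO final), then stimulated with 10 ng/ml PDGF-BB for 10 min. pAkt Ser473 in lysates was measured by MSD electrochemiluminescence; IC50 was derived by non-linear regression between stimulated and unstimulated controls.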

For the compound `CC[C@H]1COCCN1c1cc(CS(C)(=O)=O)cc(-c2ccc3[nH]c(CO)cc3n2)n1` [Example 34, (5-{6-[(3S)-3-ethylmorpholin-4-yl]-4-(methanesulfonylmethyl)pyridin-2-yl}-1H-pyrrolo[3,2-b]pyridin-2-yl)methanol], the IC50 was 2.51 to 10 nM.
`CC[C@H]1COCCN1c1cc(CS(=O)(=O)N(C)C)cc(-c2ccc3[nH]c(CO)cc3n2)n1` [Example 35, 1-{2-[(3S)-3-ethylmorpholin-4-yl]-6-[2-(hydroxymethyl)-1H-pyrrolo[3,2-b]pyridin-5-yl]pyridin-4-yl}-N,N-dimethylmethanesulfonamide]: the IC50 was 2.51 to 10 nM.
Under `CNCc1cc2nc(-c3cc(C4(S(C)(=O)=O)CCOCC4)cc(N4C5CCC4COC5)n3)ccc2[nH]1` [Example 40, ({5-[4-(4-methanesulfonyloxan-4-yl)-6-{3-oxa-8-azabicyclo[3.2.1]octan-8-yl}pyridin-2-yl]-1H-pyrrolo[3,2-b]pyridin-2-yl}methyl)(methyl)amine] stands 3.16 to 316 nM.
